Test: xn = mol fraction of the nth substance listed
Settings: 101 kPa, Liquid

CC(=O)c1ccccc1 [acetophenone] + CCOC(=O)OCC
Settings	mass density [kg/m3]	speed of sound [m/s]	viscosity [mPa·s]
293.15 K, x2 = 0.0511	1025.19	1443	1.754
293.15 K, x2 = 0.1014	1023.01	1405	1.688
293.15 K, x2 = 0.1501	1020.69	1377	1.625
293.15 K, x2 = 0.1996	1018.39	1347	1.564
293.15 K, x2 = 0.2465	1016.19	1322	1.507
293.15 K, x2 = 0.3041	1013.29	1297	1.441
293.15 K, x2 = 0.3467	1011.15	1280	1.391
293.15 K, x2 = 0.4001	1008.46	1265	1.329
293.15 K, x2 = 0.4507	1005.89	1251	1.276
293.15 K, x2 = 0.4888	1003.9	1242	1.238
293.15 K, x2 = 0.5506	1000.67	1231	1.174
293.15 K, x2 = 0.6038	997.77	1222	1.122
293.15 K, x2 = 0.6498	995.25	1218	1.079
293.15 K, x2 = 0.7104	991.92	1215	1.025
293.15 K, x2 = 0.7513	989.53	1213	0.989
293.15 K, x2 = 0.8078	986.29	1210	0.941
293.15 K, x2 = 0.8522	983.66	1208	0.906
293.15 K, x2 = 0.8993	980.83	1207	0.869
293.15 K, x2 = 0.9488	977.82	1206	0.833
303.15 K, x2 = 0.0511	1016.4	1408	1.455
303.15 K, x2 = 0.1014	1014.09	1369	1.402
303.15 K, x2 = 0.1501	1011.77	1339	1.352
303.15 K, x2 = 0.1996	1009.35	1312	1.302
303.15 K, x2 = 0.2465	1007.04	1290	1.257
303.15 K, x2 = 0.3041	1004.02	1265	1.203
303.15 K, x2 = 0.3467	1001.78	1249	1.165
303.15 K, x2 = 0.4001	998.99	1232	1.118
303.15 K, x2 = 0.4507	996.27	1217	1.075
303.15 K, x2 = 0.4888	994.18	1208	1.042
303.15 K, x2 = 0.5506	990.73	1198	0.993
303.15 K, x2 = 0.6038	987.73	1194	0.952
303.15 K, x2 = 0.6498	985.06	1193	0.918
303.15 K, x2 = 0.7104	981.54	1192	0.875
303.15 K, x2 = 0.7513	979.05	1191	0.848
303.15 K, x2 = 0.8078	975.68	1190	0.811
303.15 K, x2 = 0.8522	972.91	1189	0.784
303.15 K, x2 = 0.8993	969.91	1188	0.755
303.15 K, x2 = 0.9488	966.78	1187	0.727
313.15 K, x2 = 0.0511	1007.58	1365	1.232
313.15 K, x2 = 0.1014	1005.19	1326	1.188
313.15 K, x2 = 0.1501	1002.73	1292	1.148
313.15 K, x2 = 0.1996	1000.2	1263	1.11
313.15 K, x2 = 0.2465	997.78	1238	1.073
313.15 K, x2 = 0.3041	994.63	1212	1.03
313.15 K, x2 = 0.3467	992.31	1196	0.998
313.15 K, x2 = 0.4001	989.35	1180	0.961
313.15 K, x2 = 0.4507	986.55	1168	0.925
313.15 K, x2 = 0.4888	984.35	1160	0.9
313.15 K, x2 = 0.5506	980.71	1153	0.86
313.15 K, x2 = 0.6038	977.48	1152	0.827
313.15 K, x2 = 0.6498	974.69	1151	0.799
313.15 K, x2 = 0.7104	971.04	1150	0.765
313.15 K, x2 = 0.7513	968.47	1149	0.742
313.15 K, x2 = 0.8078	964.89	1148	0.711
313.15 K, x2 = 0.8522	961.99	1147	0.688
313.15 K, x2 = 0.8993	958.99	1146	0.665
313.15 K, x2 = 0.9488	955.63	1145	0.641
323.15 K, x2 = 0.0511	998.79	1305	1.057
323.15 K, x2 = 0.1014	996.27	1265	1.023
323.15 K, x2 = 0.1501	993.68	1234	0.991
323.15 K, x2 = 0.1996	991.08	1208	0.959
323.15 K, x2 = 0.2465	988.56	1185	0.929
323.15 K, x2 = 0.3041	985.24	1164	0.893
323.15 K, x2 = 0.3467	982.8	1151	0.868
323.15 K, x2 = 0.4001	979.74	1137	0.837
323.15 K, x2 = 0.4507	976.77	1126	0.809
323.15 K, x2 = 0.4888	974.49	1121	0.787
323.15 K, x2 = 0.5506	970.76	1118	0.755
323.15 K, x2 = 0.6038	967.47	1117	0.727
323.15 K, x2 = 0.6498	964.54	1116	0.704
323.15 K, x2 = 0.7104	960.63	1115	0.676
323.15 K, x2 = 0.7513	957.86	1114	0.656
323.15 K, x2 = 0.8078	954.13	1113	0.631
323.15 K, x2 = 0.8522	951.07	1112	0.612
323.15 K, x2 = 0.8993	947.76	1111	0.592
323.15 K, x2 = 0.9488	944.32	1110	0.573

Source: the NIST ThermoML archive (doi:10.1021/je600519p)
